Data reported in PMC9977294, “A parasitic fungus employs mutated eIF4A to survive on rocaglate-synthesizing Aglaia plants” (eLife, 2023).
Several values for one entry are separate records, joined by “and”; a condition that tells them apart may be missing. Equal values may be shown once. Read-outs that look alike come from different tables or passages of the source.

Legend:
[1] = test system: C. orbiculare eIF4A^His153Gly; assay: In planta fungal biomass on cucumber cotyledons (RT-qPCR); type: in vivo, Colletotrichum orbiculare; details: cucumber leaves; 1 µM aglafoline; 3 dpi; Figure 4B
Protocol: Fungal inoculation was performed as previously described ([Hiruma and Saijo, 2016]; [Kumakura et al., 2019]) with modifications. Cucumber cotyledons were used for C. orbiculare inoculation. Seeds of cucumber, Cucumis sativus Suyo strain (Sakata Seed Corp.), were planted on a mix of equal amounts of vermiculite (VS Kakou) and Supermix A (Sakata Seed Corp.). Cucumbers were grown at 24°C under a 10 hr light/14 hr dark cycle using biotrons (NK Systems). Cotyledons were detached from seedlings of cucumbers and inoculated with C. orbiculare at 13 days post-germination. C. orbiculare strains (eIF4A^WT#1 and eIF4A^H153G#1, Supplementary file 4) were cultured on 100 ml of 3.9% PDA in a 300 ml flask at 25°C for 6 days in the dark. Conidia that appeared on the surface of PDA were suspended in 20 ml of sterilized water, filtered through cell strainers (100 µm pore size, Corning), pelleted by centrifugation at 760 × g for 5 min, and resuspended in sterilized water. The concentration of conidia was measured with disposable hemacytometers (Funakoshi) and adjusted to 10^5 conidia/ml with or without aglafoline (1 µM). […]
Relative expression levels of the C. orbiculare 60S ribosomal protein L5 gene (GenBank: Cob_v012718) ([Gan et al., 2013]) normalized to that of a cucumber cyclophilin gene (GenBank: AY942800.1) ([Liang et al., 2018]) were determined. […]

[2] = molecular target: T1, O. sinensis eIF4A His154Gly (Ophiocordyceps sinensis, UniProt A0A8H4LTQ8, H154G); assay: Fluorescence polarization assay, FAM-labeled [AG]10 RNA and recombinant eIF4A; type: binding; details: for Kd: [AG]10 10 nM, compound 50 µM, read-out: Kd between eIF4A protein and RNA
T1 sequence (A0A8H4LTQ8 1-397 H154G): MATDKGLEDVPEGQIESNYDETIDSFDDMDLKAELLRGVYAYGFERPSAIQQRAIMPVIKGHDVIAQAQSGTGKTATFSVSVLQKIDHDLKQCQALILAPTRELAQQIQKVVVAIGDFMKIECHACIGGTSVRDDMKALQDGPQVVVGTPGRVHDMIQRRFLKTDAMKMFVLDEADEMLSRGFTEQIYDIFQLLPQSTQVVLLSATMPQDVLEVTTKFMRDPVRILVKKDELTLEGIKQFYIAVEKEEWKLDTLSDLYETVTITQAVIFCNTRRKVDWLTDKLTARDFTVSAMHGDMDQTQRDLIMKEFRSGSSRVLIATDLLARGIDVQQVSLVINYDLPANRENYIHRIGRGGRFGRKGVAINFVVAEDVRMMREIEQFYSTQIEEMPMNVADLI
Protocol: The fluorescence polarization assay was performed as previously described ([Chen et al., 2021]). […] After incubation at room temperature for 30 min, the mixture was transferred to a black 384-well microplate (Corning), and the fluorescence polarization was measured by an Infinite F-200 PRO (Tecan). Under ADP + Pi conditions, 1 mM ADP (Fujifilm Wako Chemicals) and 1 mM Na2HPO4 were used as substitutes for AMP-PNP. The data were fitted to the Hill equation to calculate Kd values and visualized by Igor Pro v8.01 (WaveMetrics).

[3] = [AG]10, ADP + Pi, RocA 50 µM, protein 0.01 μM
[4] = [AG]10, ADP + Pi, RocA 50 µM, protein 0.05 μM
[5] = [AG]10, ADP + Pi, RocA 50 µM, protein 0.075 μM
[6] = [AG]10, ADP + Pi, RocA 50 µM, protein 0.1 μM
[7] = [AG]10, ADP + Pi, RocA 50 µM, protein 0.5 μM
[8] = [AG]10, ADP + Pi, RocA 50 µM, protein 0.75 μM
[9] = [AG]10, ADP + Pi, RocA 50 µM, protein 1 μM
[10] = [AG]10, ADP + Pi, RocA 50 µM, protein 5 μM
[11] = [AG]10, ADP + Pi, RocA 50 µM, protein 7.5 μM
[12] = [AG]10, ADP + Pi, RocA 50 µM, protein 10 μM
[13] = [AG]10, ADP + Pi, RocA 50 µM, protein 25 μM
[14] = [AG]10, ADP + Pi, RocA 50 µM, protein 50 μM
[15] = [AG]10 RNA, AMP-PNP, RocA, protein concentration 0.01 μM
[16] = [AG]10 RNA, AMP-PNP, RocA, protein concentration 0.05 μM
[17] = [AG]10 RNA, AMP-PNP, RocA, protein concentration 0.075 μM
[18] = [AG]10 RNA, AMP-PNP, RocA, protein concentration 0.1 μM
[19] = [AG]10 RNA, AMP-PNP, RocA, protein concentration 0.75 μM
[20] = [AG]10 RNA, AMP-PNP, RocA, protein concentration 5 μM
[21] = [AG]10 RNA, AMP-PNP, RocA, protein concentration 7.5 μM
[22] = [AG]10 RNA, AMP-PNP, RocA, protein concentration 10 μM
[23] = [AG]10 RNA, AMP-PNP, RocA, protein concentration 25 μM
[24] = [AG]10 RNA, AMP-PNP, RocA, protein concentration 50 μM

COC(=O)[C@H]1[C@@H](O)[C@@]2(O)c3c(OC)cc(OC)cc3O[C@@]2(c2ccc(OC)cc2)[C@@H]1c1ccccc1 [Aglafoline, methyl rocaglate]
in planta fungal biomass [1]: resulted in rocaglate resistance in the fungi

COc1ccc([C@@]23Oc4cc(OC)cc(OC)c4[C@]2(O)[C@H](O)[C@H](C(=O)N(C)C)[C@H]3c2ccccc2)cc1 [RocA, rocaglamide A]
Kd ([2]; ADP + Pi (1 mM each)): 850 ± 120 nM
Kd ([2]; AMP-PNP 1 mM): 370 ± 46 nM
fluorescence polarization, Mean [2, 3]: 0.06011
fluorescence polarization, replicates [2, 3]: -0.02732
fluorescence polarization, Mean [2, 4]: 0.1202
fluorescence polarization, replicates [2, 4]: 0.1284
fluorescence polarization, Mean [2, 5]: 0.1339
fluorescence polarization, replicates [2, 5]: 0.1284 and 0.1612 and 0.112
fluorescence polarization, Mean [2, 6]: 0.1639
fluorescence polarization, replicates [2, 6]: 0.2104 and 0.1284 and 0.153
fluorescence polarization, Mean [2, 7]: 0.6885
fluorescence polarization, replicates [2, 7]: 0.6858 and 0.5956
fluorescence polarization, Mean [2, 8]: 0.6093
fluorescence polarization, replicates [2, 8]: 0.5874 and 0.6038
fluorescence polarization, Mean [2, 9]: 0.8743
fluorescence polarization, replicates [2, 9]: 0.9071 and 0.9481
fluorescence polarization, Mean [2, 10]: 1.648
fluorescence polarization, replicates [2, 10]: 1.628 and 1.6612 and 1.653
fluorescence polarization, Mean [2, 11]: 1.617
fluorescence polarization, replicates [2, 11]: 1.6776 and 1.53 and 1.645
fluorescence polarization, Mean [2, 12]: 1.686
fluorescence polarization, replicates [2, 12]: 1.612 and 1.735 and 1.71
fluorescence polarization, Mean [2, 13]: 1.735
fluorescence polarization, replicates [2, 13]: 1.76 and 1.751 and 1.694
fluorescence polarization, Mean [2, 14]: 1.7459
fluorescence polarization, replicates [2, 14]: 1.735 and 1.76 and 1.743
Fluorescence polarization, Replicate 1-3 [2, 15]: 0.04372 and 0.1339 and -0.005464
fluorescence polarization, Mean [2, 15]: 0.05738
Fluorescence polarization, Replicate 1-3 [2, 16]: 0.06831 and 0.1421 and -0.03005
fluorescence polarization, Mean [2, 16]: 0.06011
Fluorescence polarization, Replicate 1-3 [2, 17]: 0.06831 and 0.1339 and 0.1503
fluorescence polarization, Mean [2, 17]: 0.1175
Fluorescence polarization, Replicate 1-3 [2, 18]: 0.1667 and 0.0847 and 0.1995
fluorescence polarization, Mean [2, 18]: 0.1503
Fluorescence polarization, Replicate 1-3 ([2]; [AG]10 RNA, AMP-PNP, RocA, protein concentration 0.5 μM): 1.142 and 1.044 and 0.9536
Fluorescence polarization, Replicate 1-3 [2, 19]: 0.9454 and 1.044 and 0.9126
fluorescence polarization, Mean [2, 19]: 0.9672
Fluorescence polarization, Replicate 1-3 ([2]; [AG]10 RNA, AMP-PNP, RocA, protein concentration 1 μM): 1.175 and 1.167 and 1.109
Fluorescence polarization, Replicate 1-3 [2, 20]: 1.5847 and 1.5765 and 1.601
fluorescence polarization, Mean [2, 20]: 1.587
Fluorescence polarization, Replicate 1-3 [2, 21]: 1.511 and 1.56 and 1.601
fluorescence polarization, Mean [2, 21]: 1.557
Fluorescence polarization, Replicate 1-3 [2, 22]: 1.675 and 1.56 and 1.667
fluorescence polarization, Mean [2, 22]: 1.634
Fluorescence polarization, Replicate 1-3 [2, 23]: 1.5847 and 1.699 and 1.626
fluorescence polarization, Mean [2, 23]: 1.637
Fluorescence polarization, Replicate 1-3 [2, 24]: 1.65 and 1.626 and 1.691
fluorescence polarization, Mean [2, 24]: 1.656
